Test results taken from patent publication US7563825B1, “Modulation of beta-catenin coactivator interactions to effect stem cell growth or differentiation” (Choongwae Pharma Corporation, priority 2005, dated 2009).
Entries after “also recorded” stand apart in the source; their conditions may differ.

What was measured:
[1] = tested on: C2C12 myoblasts; experiment: Differentiation of C2C12 myoblasts; format: cell-based; conditions: 10 μM ICG-001, compared to differentiation medium or growth medium (FIGS. 3, 4)
Method: FIG. 4 illustrates that differentiation of C2C12 myeloblasts is induced by 10 μM ICG-001 as compared to differentiation medium.
(§1) From our chemogenomic studies with the small molecule inhibitor of the β-catenin/CBP interaction and additional gene expression profiling, we have developed a model that describes how differential coactivator usage in Wnt signaling controls proliferation vs. differentiation. The critical feature of this model is that the CBP arm (FIG. 2, left side) of the pathway is essential for proliferation without differentiation, for example in cancer or stem cells, whereas the p300 arm (FIG. 2, right side) is critical for differentiation, with limited proliferation.

[2] = tested on: 3T3-L1 preadipocytes; experiment: Differentiation of 3T3-L1 preadipocytes; format: cell-based
Excerpt: as §1

[3] = biological target: β-catenin/CBP (Homo sapiens, UniProt Q92793); conditions: CBP arm of the Wnt pathway; cited from earlier work
β-catenin/CBP, sequence (Q92793 whole entry): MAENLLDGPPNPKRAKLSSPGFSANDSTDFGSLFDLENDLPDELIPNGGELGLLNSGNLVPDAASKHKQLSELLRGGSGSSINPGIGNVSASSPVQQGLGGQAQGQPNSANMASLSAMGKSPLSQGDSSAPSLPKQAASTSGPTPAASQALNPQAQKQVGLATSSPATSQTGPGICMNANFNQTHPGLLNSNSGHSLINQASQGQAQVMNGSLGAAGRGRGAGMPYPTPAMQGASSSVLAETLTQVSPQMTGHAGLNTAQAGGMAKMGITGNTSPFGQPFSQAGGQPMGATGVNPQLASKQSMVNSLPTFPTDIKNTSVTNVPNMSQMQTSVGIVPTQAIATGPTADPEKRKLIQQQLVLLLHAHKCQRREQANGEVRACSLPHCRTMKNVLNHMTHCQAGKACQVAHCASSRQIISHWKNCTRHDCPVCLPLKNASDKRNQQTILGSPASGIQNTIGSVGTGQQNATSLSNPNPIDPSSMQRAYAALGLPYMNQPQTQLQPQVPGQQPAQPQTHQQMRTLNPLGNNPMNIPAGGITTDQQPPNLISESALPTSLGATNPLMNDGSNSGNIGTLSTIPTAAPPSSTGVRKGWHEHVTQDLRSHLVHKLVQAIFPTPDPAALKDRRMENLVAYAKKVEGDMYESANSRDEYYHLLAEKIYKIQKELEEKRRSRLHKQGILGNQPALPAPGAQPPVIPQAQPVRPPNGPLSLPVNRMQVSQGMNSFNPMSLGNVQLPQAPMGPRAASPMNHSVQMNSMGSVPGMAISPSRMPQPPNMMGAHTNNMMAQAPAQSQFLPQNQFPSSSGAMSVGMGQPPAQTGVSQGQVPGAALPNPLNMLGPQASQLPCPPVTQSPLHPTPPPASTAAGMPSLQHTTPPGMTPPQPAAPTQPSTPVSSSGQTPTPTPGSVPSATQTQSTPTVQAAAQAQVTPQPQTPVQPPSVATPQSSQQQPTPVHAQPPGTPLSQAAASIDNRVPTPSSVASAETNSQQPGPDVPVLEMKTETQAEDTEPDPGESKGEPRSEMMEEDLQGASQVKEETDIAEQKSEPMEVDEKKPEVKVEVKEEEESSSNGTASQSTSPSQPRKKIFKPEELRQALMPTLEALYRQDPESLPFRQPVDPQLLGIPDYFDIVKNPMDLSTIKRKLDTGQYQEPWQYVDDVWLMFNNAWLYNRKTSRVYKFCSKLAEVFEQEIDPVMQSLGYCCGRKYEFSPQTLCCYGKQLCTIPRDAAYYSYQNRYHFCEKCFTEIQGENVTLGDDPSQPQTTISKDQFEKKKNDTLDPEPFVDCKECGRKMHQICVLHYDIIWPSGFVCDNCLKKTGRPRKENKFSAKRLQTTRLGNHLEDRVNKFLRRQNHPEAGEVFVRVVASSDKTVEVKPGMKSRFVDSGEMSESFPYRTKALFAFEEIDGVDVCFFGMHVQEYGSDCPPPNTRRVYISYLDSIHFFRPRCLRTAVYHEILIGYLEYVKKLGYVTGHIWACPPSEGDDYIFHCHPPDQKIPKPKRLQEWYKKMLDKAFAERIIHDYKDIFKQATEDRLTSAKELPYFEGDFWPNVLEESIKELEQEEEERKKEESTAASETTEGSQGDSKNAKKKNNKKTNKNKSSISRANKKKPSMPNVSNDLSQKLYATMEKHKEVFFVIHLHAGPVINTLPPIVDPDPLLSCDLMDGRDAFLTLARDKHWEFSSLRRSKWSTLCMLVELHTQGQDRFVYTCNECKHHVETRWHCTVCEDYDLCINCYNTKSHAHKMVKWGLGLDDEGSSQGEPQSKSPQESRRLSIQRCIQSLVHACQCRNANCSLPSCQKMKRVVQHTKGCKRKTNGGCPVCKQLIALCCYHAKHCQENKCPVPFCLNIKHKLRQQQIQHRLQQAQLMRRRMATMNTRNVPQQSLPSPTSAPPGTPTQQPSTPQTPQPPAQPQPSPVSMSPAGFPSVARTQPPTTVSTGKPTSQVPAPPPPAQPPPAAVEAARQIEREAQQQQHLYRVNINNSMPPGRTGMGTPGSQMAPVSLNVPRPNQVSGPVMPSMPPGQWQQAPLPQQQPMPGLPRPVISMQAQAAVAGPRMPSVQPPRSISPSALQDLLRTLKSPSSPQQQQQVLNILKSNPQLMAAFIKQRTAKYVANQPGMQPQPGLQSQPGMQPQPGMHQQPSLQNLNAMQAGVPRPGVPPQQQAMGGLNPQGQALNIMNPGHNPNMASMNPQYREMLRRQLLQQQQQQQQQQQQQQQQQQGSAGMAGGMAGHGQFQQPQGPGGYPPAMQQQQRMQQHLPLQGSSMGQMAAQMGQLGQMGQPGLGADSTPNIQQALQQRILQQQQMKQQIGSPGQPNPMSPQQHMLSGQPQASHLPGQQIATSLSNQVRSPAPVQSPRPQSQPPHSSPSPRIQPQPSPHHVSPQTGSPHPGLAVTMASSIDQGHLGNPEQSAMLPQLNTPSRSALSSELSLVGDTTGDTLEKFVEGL

[4] = tested on: cancer cells; conditions: cited from earlier work

## O=C1[C@H](Cc2ccc(O)cc2)N2C(=O)CCN(C(=O)NCc3ccccc3)[C@H]2CN1Cc1cccc2ccccc12 [ICG-001]
[1]
  differentiation of C2C12 myeloblasts (myoblasts): induces the differentiation; also recorded: induced; also recorded: inducing the differentiation
[2]
  differentiation of non-tumorigenic precursor cells, 3T3-L1 preadipocytes: inducing the differentiation
[3]
  inhibition of β-catenin/CBP dependent transcription: specifically inhibits
[4]
  programmed cell death in cancer cells: selectively inducing programmed cell death
